Each structure is given as a SMILES string.

In assay [1] the target is human thymidylate synthase (Homo sapiens, UniProt P04818). In words: spectrophotometric assay of human thymidylate synthase activity. Format: biochemical. The settings on record: for Ki: Table 2, kinetic parameters of TS in presence of selected compounds. The procedure: A spectrophotometric assay is used to test compounds for their inhibitory activity against human thymidylate synthase activity. This assay is a modification of the assay of Wahba, A. J., and Friedkin, M. (1961). Direct spectrophotometric evidence for the oxidation of tetrahydrofolate during the enzymatic synthesis of thymidylate (J. Biol. Chem. 236, PC11-12).
In the spectrophotometric assay, human thymidylate synthase is preincubated with deoxyuridine monophosphate (and inhibitors) in 96-well plates for 0-5 minutes at room temperature and fresh 5,10-methylene tetrahydrofolate (THF) is added to the mixture immediately before the reaction to yield a volume of 100 μl. 5,10-methylene tetrahydrofolate is prepared fresh prior to every experiment by dissolving THF in 0.26 M formaldehyde, 80 mM dithiothreitol, and 50 mM Tris HCI (pH 6.8/7.0). X-ray crystallography is then utilized to identify any binding site in human thymidylate synthase for an inhibitor and also to characterize its mechanism of action.
The 40 highest scoring compounds in the above-mentioned screening assay were obtained and tested for their abilities to inhibit the biochemical activity of human thymidylate synthase. Four compounds were inhibitory and preliminary studies show the enzyme mechanism to be non-competitive (i.e. through modulating or interfering with association among human thymidylate synthase monomers).

A further assay deals with HT29. The assay is described as follows: cell proliferation experiments, combination with 5-FU. Format: cell-based, human. The following applies: combination of CNX treatment with 5-FU versus 5FU alone. From the text:
(§1) The combination of certain compounds (e.g., CNX) with certain anti-cancer compounds (e.g., 5-FU) can produce synergistic anticancer effects.

The test system of the next assay is HeLa. The assay is described as above. It counts as cell-based, human. The settings on record: combination of CNX treatment with 5-FU versus 5FU alone.
Text: as §1

Sequence of human thymidylate synthase (P04818 whole entry): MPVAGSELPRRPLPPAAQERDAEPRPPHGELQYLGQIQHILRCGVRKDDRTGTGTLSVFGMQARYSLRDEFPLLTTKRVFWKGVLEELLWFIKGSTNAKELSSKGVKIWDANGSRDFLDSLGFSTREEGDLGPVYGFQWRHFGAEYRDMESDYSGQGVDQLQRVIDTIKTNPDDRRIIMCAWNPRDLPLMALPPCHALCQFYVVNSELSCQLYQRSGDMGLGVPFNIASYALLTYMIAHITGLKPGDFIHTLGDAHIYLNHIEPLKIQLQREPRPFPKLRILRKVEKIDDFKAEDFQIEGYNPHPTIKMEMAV

`O=c1[nH]cc(F)c(=O)[nH]1` [5-FU, 5-fluorouracil, reference compound]: the Ki in assay [1] was 56.7 µM.
`CCN(CC)S(=O)(=O)c1ccc(C(=O)O)cc1` [NSC49467, P-(Diethylsulfamoyl)benzoic acid]: the Ki in assay [1] was 177 µM.
As to `O=P(O)(O)OCC(O)CO` (stereo not drawn) [NSC9231, 2,3-Dihydroxypropyl dihydrogen phosphate], the inhibition constant Ki in assay [1] was 2.12 µM.
Still for that read-out and setting: the figure for `CC(=O)Nc1c(I)cc(I)c(C(=O)O)c1I` [NSC141235, 3-(acetylamino)-2,4,6-triiodobenzoic acid.6-(methylamino)hexane-1,2,3,4,5-pentol] is 5.4 µM; for `O=C(O)C(S)C(S)C(=O)O` (stereo not drawn) [NSC16867, 2,3-Dimercaptosuccinic acid] it is 45.5 µM.
For `CCn1nc(C(=O)O)c(=O)c2cc3c(cc21)OCO3` [NSC304467, 1-Ethyl-4-oxo-1,4-dihydro[1,3]dioxolo[4,5-g]cinnoline-3-carboxylic acid], in assay [1], the “enzyme mechanism of TS inhibition” value is “non-competitive”, the “inhibiting TS activity (in words)” value is recorded as “potent” and the Ki is 0.32 µM. The “inhibitory effect on cell proliferation” value with HT29 is given as “greater inhibitory effects than 5FU alone”. For the same molecule, the “inhibitory effect on cell proliferation” value in the assay with HeLa is on record as “greater inhibitory effects than 5FU alone”.
Regarding `O=C(O)Cn1cc(I)c(=O)c(I)c1` [NSC60718, (3,5-diiodo-4-oxo-1(4H)-pyridinyl)acetic acid], the Ki in assay [1] was 29.8 µM.
On the same count and under the same terms, the figure for `CC(=O)NC(CS)C(=O)O` (stereo not drawn) [NSC111180, 2-acetamido-3-sulfanylpropanoic acid] is 602 µM.

(Values after patent publication US8501242B2, “Methods and compositions for treating neoplasia” (University of Florida Research Foundation, priority 2009, dated 2013).)
